# Assay results taken from patent US11083725B2 (priority 2014, dated 2021).
# Test system: NHBE cells
# Test: Biolog metabolic array: substrate use by NHBE cells with or without CA09 infection
# Assay type: cell-based, human
# Details: for Substrate use, 590 nm absorbance normalized to zero hour, 1 hr: Biolog PMM2, 1 hr; for Substrate use, 590 nm absorbance normalized to zero hour, 5 hr: Biolog PMM2, 5 hr; for Substrate use, 590 nm absorbance normalized to zero hour, 7 hr: Biolog PMM2, 7 hr
# [1] = Control (uninfected) NHBE cells
# [2] = Virus (CA09-infected, MOI 1) NHBE cells
# [3] = Virus: CA09-infected NHBE cells, MOI 1, Biolog PMM2
# [4] = Virus (CA09, MOI 1) infected NHBE cells
Structure (SMILES),"590 nm absorbance normalized to zero hour (substrate use), 1 hr [1]","590 nm absorbance normalized to zero hour (substrate use), 2 hr [1]","590 nm absorbance normalized to zero hour (substrate use), 3 hr [1]","590 nm absorbance normalized to zero hour (substrate use), 4 hr [1]","590 nm absorbance normalized to zero hour (substrate use), 6 hr [1]","590 nm absorbance normalized to zero hour (substrate use), 8 hr [1]","590 nm absorbance normalized to zero hour (substrate use), 9 hr [1]","590 nm absorbance normalized to zero hour (substrate use), 10 hr [1]","590 nm absorbance normalized to zero hour (substrate use), 11 hr [1]","Substrate use, 590 nm absorbance normalized to zero hour, 1 hr [1]","Substrate use, 590 nm absorbance normalized to zero hour, 5 hr [1]","Substrate use, 590 nm absorbance normalized to zero hour, 7 hr [1]","590 nm absorbance normalized to zero hour (substrate use), 1 hr [2]","590 nm absorbance normalized to zero hour (substrate use), 2 hr [2]","590 nm absorbance normalized to zero hour (substrate use), 3 hr [2]","590 nm absorbance normalized to zero hour (substrate use), 4 hr [2]","590 nm absorbance normalized to zero hour (substrate use), 6 hr [2]","590 nm absorbance normalized to zero hour (substrate use), 8 hr [2]","590 nm absorbance normalized to zero hour (substrate use), 9 hr [2]","590 nm absorbance normalized to zero hour (substrate use), 10 hr [2]",other results
O=C[C@@H](O)[C@H](O)[C@H](O)CO [D-Arabinose],1.59,1.50,0.77,1.35,0.39,1.00,1.14,0.96,1.35,1.59,0.99,1.04,0.65,0.90,1.03,1.07,1.29,1.33,1.34,1.38,"590 nm absorbance normalized to zero hour (substrate use), 5 hr [2]: 1.22; 590 nm absorbance normalized to zero hour (substrate use), 7 hr [2]: 1.37; 590 nm absorbance normalized to zero hour (substrate use), 11 hr [2]: 1.58; 590 nm absorbance normalized to zero hour (substrate use), 1 hr [3]: 0.65; 590 nm absorbance normalized to zero hour (substrate use), 2 hr [3]: 0.90; 590 nm absorbance normalized to zero hour (substrate use), 3 hr [3]: 1.03; 590 nm absorbance normalized to zero hour (substrate use), 4 hr [3]: 1.07; 590 nm absorbance normalized to zero hour (substrate use), 5 hr [3]: 1.22; 590 nm absorbance normalized to zero hour (substrate use), 6 hr [3]: 1.29; 590 nm absorbance normalized to zero hour (substrate use), 7 hr [3]: 1.37; 590 nm absorbance normalized to zero hour (substrate use), 8 hr [3]: 1.33; 590 nm absorbance normalized to zero hour (substrate use), 9 hr [3]: 1.34; 590 nm absorbance normalized to zero hour (substrate use), 10 hr [3]: 1.38; 590 nm absorbance normalized to zero hour (substrate use), 11 hr [3]: 1.58"
OC[C@H]1O[C@@H]2O[C@H]3[C@H](O)[C@@H](O)[C@@H](O[C@H]4[C@H](O)[C@@H](O)[C@@H](O[C@H]5[C@H](O)[C@@H](O)[C@@H](O[C@H]6[C@H](O)[C@@H](O)[C@@H](O[C@H]7[C@H](O)[C@@H](O)[C@@H](O[C@H]1[C@H](O)[C@H]2O)O[C@@H]7CO)O[C@@H]6CO)O[C@@H]5CO)O[C@@H]4CO)O[C@@H]3CO [a-Cyclo-dextrin],1.89,2.66,3.24,3.50,4.31,5.25,5.99,6.37,5.86,1.89,4.31,4.96,1.86,2.62,2.99,3.18,4.06,4.56,4.96,5.19,"590 nm absorbance normalized to zero hour (substrate use), 0 hr [1]: 1.00; Substrate use, 590 nm absorbance normalized to zero hour, 0 hr (Control (uninfected) NHBE cells, Biolog PMM2, 0 hr): 1.00; 590 nm absorbance normalized to zero hour (substrate use), 0 hr [2]: 1.00; 590 nm absorbance normalized to zero hour (substrate use), 5 hr [2]: 3.75; 590 nm absorbance normalized to zero hour (substrate use), 7 hr [2]: 4.29; 590 nm absorbance normalized to zero hour (substrate use), 11 hr [2]: 4.09; 590 nm absorbance normalized to zero hour (substrate use), 0 hr [3]: 1.00; 590 nm absorbance normalized to zero hour (substrate use), 1 hr [3]: 1.86; 590 nm absorbance normalized to zero hour (substrate use), 2 hr [3]: 2.62; 590 nm absorbance normalized to zero hour (substrate use), 3 hr [3]: 2.99; 590 nm absorbance normalized to zero hour (substrate use), 4 hr [3]: 3.18; 590 nm absorbance normalized to zero hour (substrate use), 5 hr [3]: 3.75; 590 nm absorbance normalized to zero hour (substrate use), 6 hr [3]: 4.06; 590 nm absorbance normalized to zero hour (substrate use), 7 hr [3]: 4.29; 590 nm absorbance normalized to zero hour (substrate use), 8 hr [3]: 4.56; 590 nm absorbance normalized to zero hour (substrate use), 9 hr [3]: 4.96; 590 nm absorbance normalized to zero hour (substrate use), 10 hr [3]: 5.19; 590 nm absorbance normalized to zero hour (substrate use), 11 hr [3]: 4.09"
OCc1ccccc1O[C@@H]1O[C@H](CO)[C@@H](O)[C@H](O)[C@H]1O [Salicin],1.17,0.93,0.96,0.83,0.43,0.67,0.66,0.62,0.62,1.17,0.78,0.69,0.77,1.06,1.26,1.36,1.76,2.01,2.26,2.38,"Substrate use, 590 nm absorbance normalized to zero hour, 1 hr [4]: 0.77; Substrate use, 590 nm absorbance normalized to zero hour, 5 hr [4]: 1.64; Substrate use, 590 nm absorbance normalized to zero hour, 7 hr [4]: 1.87; 590 nm absorbance normalized to zero hour (substrate use), 11 hr [2]: 2.62"
